pIC50: −log10 of the molar value. Activity calls are given as the source filed them. The calls are words filed in the database; no cut-off is given here.
Key:
[1] = tested on: MDA-MB-468; test: Antiproliferative activity against human MDA-MB-468 cells harboring wild type BRCA1/2, HR-proficient and non-c-Met amplification assessed as inhibition of cell growth incubated for 7 days by MTT assay; type: functional, cell-based; conditions: MDA-MB-468, 168 h
[2] = tested on: MDA-MB-231; test: Antitumor activity against human MDA-MB-231 cells xenografted in female Balb/c nude mouse assessed as tumor growth inhibition at 25 mg/kg/day, po qd administered for 28 days in presence of olaparib 50 mg/kg, ip qd relative to control; type: functional; conditions: MDA-MB-231, 672 h, time 28 day, read-out: TGI
[3] = Antiproliferative activity against human Olaparib-resistant HCC1937 cells harboring BRCA1 mutant and PARP1 overexpression assessed as inhibition of cell growth incubated for 7 days by MTT assay; type: functional, cell-based; conditions: Olaparib-resistant HCC1937, 168 h
[4] = tested on: MDA-MB-231; test: Induction of apoptosis in human MDA-MB-231 cells assessed as live cells at 0.5 uM incubated for 4 days in presence of olaparib at 1 uM by Annexin V-FITC/PI staining based flow cytometry analysis (reference value: 94.6%); type: functional; conditions: time 4 day
[5] = tested on: MDA-MB-231; test: Induction of apoptosis in human MDA-MB-231 cells assessed as dead cells at 0.5 uM incubated for 4 days in presence of olaparib at 1 uM by Annexin V-FITC/PI staining based flow cytometry analysis (reference value: 0.72%); type: functional; conditions: time 4 day
[6] = tested on: MDA-MB-231; test: Induction of apoptosis in human MDA-MB-231 cells assessed as dead cells at 0.5 uM incubated for 4 days by Annexin V-FITC/PI staining based flow cytometry analysis (reference value: 0.72%); type: functional; conditions: time 4 day
[7] = tested on: MDA-MB-231; test: Induction of apoptosis in human MDA-MB-231 cells assessed as early apoptotic cells at 0.5 uM incubated for 4 days in presence of olaparib at 1 uM by Annexin V-FITC/PI staining based flow cytometry analysis (reference value: 3.88%); type: functional; conditions: time 4 day
[8] = tested on: Olaparib-resistant HCT116; test: Antiproliferative activity against human Olaparib-resistant HCT116 cells harboring BRCA2 mutant assessed as inhibition of cell growth incubated for 7 days by MTT assay; type: functional, cell-based; conditions: Olaparib-resistant HCT116, 168 h
[9] = tested on: MDA-MB-231; test: Antitumor activity against human MDA-MB-231 cells xenografted in female Balb/c nude mouse assessed as reduction in tumor weight at 25 mg/kg/day, po qd administered for 28 days in presence of olaparib 50 mg/kg, ip qd; type: functional, organism-based; conditions: time 28.0 day
[10] = tested on: MDA-MB-231; test: Antitumor activity against human MDA-MB-231 cells xenografted in female Balb/c nude mouse assessed as reduction in tumor weight at 25 mg/kg/day, po qd administered for 28 days; type: functional, organism-based; conditions: time 28.0 day
[11] = tested on: MDA-MB-231; test: Induction of apoptosis in human MDA-MB-231 cells assessed as early apoptotic cells at 0.5 uM incubated for 4 days by Annexin V-FITC/PI staining based flow cytometry analysis (reference value: 3.88%); type: functional; conditions: time 4 day
[12] = tested on: MDA-MB-231; test: Induction of apoptosis in human MDA-MB-231 cells assessed as live cells at 0.5 uM incubated for 4 days by Annexin V-FITC/PI staining based flow cytometry analysis (reference value: 94.6%); type: functional; conditions: time 4 day
[13] = tested on: Olaparib-resistant HCT116; test: Antitumor activity against human Olaparib-resistant HCT116 cells xenografted in female Balb/c nude mouse assessed as tumor growth inhibition at 25 mg/kg/day, po qd administered for 21 days relative to control; type: functional; conditions: Olaparib-resistant HCT116, 504 h, time 21 day, read-out: TGI
[14] = tested on: Olaparib-resistant HCT116; test: Antitumor activity against human Olaparib-resistant HCT116 cells xenografted in female Balb/c nude mouse assessed as tumor growth inhibition at 25 mg/kg/day, po qd administered for 21 days in presence of olaparib at 50 mg/kg/day, ip qd relative to control; type: functional; conditions: Olaparib-resistant HCT116, 504 h, time 21 day, read-out: TGI
[15] = tested on: MDA-MB-231; test: Induction of apoptosis in human MDA-MB-231 cells assessed as late apoptotic cells at 0.5 uM incubated for 4 days in presence of olaparib at 1 uM by Annexin V-FITC/PI staining based flow cytometry analysis (reference value: 0.81%); type: functional; conditions: time 4 day
[16] = tested on: MDA-MB-231; test: Induction of apoptosis in human MDA-MB-231 cells assessed as late apoptotic cells at 0.5 uM incubated for 4 days by Annexin V-FITC/PI staining based flow cytometry analysis (reference value: 0.81%); type: functional; conditions: time 4 day
[17] = tested on: Olaparib-resistant HCT116; test: Antitumor activity against human Olaparib-resistant HCT116 cells xenografted in female Balb/c nude mouse assessed as reduction in tumor weight at 25 mg/kg/day, po qd administered for 21 days; type: functional, organism-based; conditions: time 21.0 day
[18] = tested on: MDA-MB-231; test: Antiproliferative activity against human MDA-MB-231 cells harboring wild type BRCA and c-Met amplification assessed as inhibition of cell growth incubated for 7 days by MTT assay; type: functional, cell-based; conditions: MDA-MB-231, 168 h
[19] = tested on: MDA-MB-231; test: Antitumor activity against human MDA-MB-231 cells xenografted in female Balb/c nude mouse assessed as tumor growth inhibition at 25 mg/kg/day, po qd administered for 28 days relative to control; type: functional; conditions: MDA-MB-231, 672 h, time 28 day, read-out: TGI
[20] = tested on: MDA-MB-231; test: Induction of apoptosis in human MDA-MB-231 cells assessed as early apoptotic cells at 1 uM incubated for 4 days by Annexin V-FITC/PI staining based flow cytometry analysis (reference value: 3.88%); type: functional; conditions: time 4 day
[21] = tested on: MDA-MB-231; test: Induction of apoptosis in human MDA-MB-231 cells assessed as dead cells at 1 uM incubated for 4 days in presence of crizotinib at 0.5 uM by Annexin V-FITC/PI staining based flow cytometry analysis (reference value: 0.72%); type: functional; conditions: time 4 day
[22] = tested on: MDA-MB-231; test: Induction of apoptosis in human MDA-MB-231 cells assessed as late apoptotic cells at 1 uM incubated for 4 days in presence of crizotinib at 0.5 uM by Annexin V-FITC/PI staining based flow cytometry analysis (reference value: 0.81%); type: functional; conditions: time 4 day
[23] = tested on: MDA-MB-231; test: Antitumor activity against human MDA-MB-231 cells xenografted in female Balb/c nude mouse assessed as reduction in tumor weight at 50 mg/kg/day, ip qd administered for 28 days; type: functional, organism-based; conditions: time 28.0 day
[24] = tested on: MDA-MB-231; test: Induction of apoptosis in human MDA-MB-231 cells assessed as late apoptotic cells at 1 uM incubated for 4 days by Annexin V-FITC/PI staining based flow cytometry analysis (reference value: 0.81%); type: functional; conditions: time 4 day
[25] = tested on: MDA-MB-231; test: Induction of apoptosis in human MDA-MB-231 cells assessed as live cells at 1 uM incubated for 4 days in presence of crizotinib at 0.5 uM by Annexin V-FITC/PI staining based flow cytometry analysis (reference value: 94.6%); type: functional; conditions: time 4 day
[26] = tested on: Olaparib-resistant HCT116; test: Antitumor activity against human Olaparib-resistant HCT116 cells xenografted in female Balb/c nude mouse assessed as reduction in tumor weight at 50 mg/kg/day, ip qd administered for 21 days; type: functional, organism-based; conditions: time 21.0 day
[27] = tested on: MDA-MB-231; test: Induction of apoptosis in human MDA-MB-231 cells assessed as dead cells at 1 uM incubated for 4 days by Annexin V-FITC/PI staining based flow cytometry analysis (reference value: 0.72%); type: functional; conditions: time 4 day
[28] = tested on: MDA-MB-231; test: Induction of apoptosis in human MDA-MB-231 cells assessed as live cells at 1 uM incubated for 4 days by Annexin V-FITC/PI staining based flow cytometry analysis (reference value: 94.6%); type: functional; conditions: time 4 day
[29] = tested on: Olaparib-resistant HCT116; test: Antitumor activity against human Olaparib-resistant HCT116 cells xenografted in female Balb/c nude mouse assessed as reduction in tumor weight at 50 mg/kg/day, ip qd administered for 21 days in presence of crizotinib at 25 mg/kg/day, po qd; type: functional, organism-based; conditions: time 21.0 day
[30] = tested on: Olaparib-resistant HCT116; test: Antitumor activity against human Olaparib-resistant HCT116 cells xenografted in female Balb/c nude mouse assessed as reduction in tumor weight at 25 mg/kg/day, po qd administered for 21 days in presence of olaparib at 50 mg/kg/day, ip qd; type: functional, organism-based; conditions: time 21.0 day
[31] = tested on: Olaparib-resistant HCT116; test: Antitumor activity against human Olaparib-resistant HCT116 cells xenografted in female Balb/c nude mouse assessed as tumor growth inhibition at 50 mg/kg/day, ip qd administered for 21 days relative to control; type: functional; conditions: time 21 day
[32] = tested on: MDA-MB-231; test: Antitumor activity against human MDA-MB-231 cells xenografted in female Balb/c nude mouse assessed as tumor growth inhibition at 50 mg/kg/day, ip qd administered for 28 days relative to control; type: functional; conditions: time 28 day
[33] = tested on: MDA-MB-231; test: Antitumor activity against human MDA-MB-231 cells xenografted in female Balb/c nude mouse assessed as reduction in tumor weight at 50 mg/kg/day, ip qd administered for 28 days in presence of crizotinib at 25 mg/kg, po qd; type: functional, organism-based; conditions: time 28.0 day
[34] = tested on: Olaparib-resistant HCT116; test: Antitumor activity against human Olaparib-resistant HCT116 cells xenografted in female Balb/c nude mouse assessed as tumor growth inhibition at 50 mg/kg/day, ip qd administered for 21 days in presence of crizotinib at 25 mg/kg/day, po qd relative to control; type: functional; conditions: time 21 day
[35] = tested on: MDA-MB-231; test: Induction of apoptosis in human MDA-MB-231 cells assessed as early apoptotic cells at 1 uM incubated for 4 days in presence of crizotinib at 0.5 uM by Annexin V-FITC/PI staining based flow cytometry analysis (reference value: 3.88%); type: functional; conditions: time 4 day

Compound: C[C@@H](Oc1cc(-c2cnn(C3CCNCC3)c2)cnc1N)c1c(Cl)ccc(F)c1Cl [CRIZOTINIB]
- pIC50 [1]: 5.34
- inhibition in vivo at 25 mg/kg/day [2]: 69%
- pIC50 [3]: 5.28
- Activity [4]: 76.9%
- Activity [5]: 9.45%
- Activity [6]: 2.23%
- Activity [7]: 7.12%
- pIC50 [8]: 5.50
- Activity [9]: Active
- Activity [10]: Active
- Activity [11]: 4.75%
- Activity [12]: 90.9%
- inhibition in vivo at 25 mg/kg/day [13]: 21%
- inhibition in vivo at 25 mg/kg/day [14]: 48%
- Activity [15]: 6.57%
- Activity [16]: 2.08%
- Activity [17]: Active
- pIC50 [18]: 5.08
- inhibition in vivo at 25 mg/kg/day [19]: 6%

Compound: O=C(c1cc(Cc2n[nH]c(=O)c3ccccc23)ccc1F)N1CCN(C(=O)C2CC2)CC1 [OLAPARIB]
- pIC50 [1]: 5.03
- Activity [20]: 3.77%
- Activity [21]: 9.45%
- pIC50 [3]: 4.72
- Activity [22]: 6.57%
- Activity [23]: Active
- Activity [24]: 2.48%
- pIC50 [8]: 4.29
- Activity [25]: 76.9%
- Activity [26]: Active
- Activity [27]: 4.86%
- Activity [28]: 88.9%
- Activity [29]: Active
- Activity [30]: Active
- TGI [31]: 26%
- TGI [32]: 27%
- Activity [33]: Active
- pIC50 [18]: 4.51
- TGI [34]: 48%
- Activity [35]: 7.12%

Source: ChEMBL document CHEMBL5518224, “Rational Design of PARP1/c-Met Dual Inhibitors for Overcoming PARP1 Inhibitor Resistance Induced by c-Met Overexpression” (J Med Chem, 2024)
